In brackets after ≈: the same amount, converted by molar mass. Activity calls are given as the source filed them. The rule behind the calls is not given here.
Key:
Bacillus subtilis [1] = experiment: Antibacterial activity against Bacillus subtilis 168 after 16 hrs; assay type: functional; details: subsp. subtilis str. 168, 16 h
[2] = target: T1, Cell division protein FtsZ (Bacillus subtilis (strain 168)) (UniProt P17865); experiment: Inhibition of Bacillus subtilis FtsZ GTPase activity up to 64 uM by enzyme-coupled assay
T1 sequence (whole entry): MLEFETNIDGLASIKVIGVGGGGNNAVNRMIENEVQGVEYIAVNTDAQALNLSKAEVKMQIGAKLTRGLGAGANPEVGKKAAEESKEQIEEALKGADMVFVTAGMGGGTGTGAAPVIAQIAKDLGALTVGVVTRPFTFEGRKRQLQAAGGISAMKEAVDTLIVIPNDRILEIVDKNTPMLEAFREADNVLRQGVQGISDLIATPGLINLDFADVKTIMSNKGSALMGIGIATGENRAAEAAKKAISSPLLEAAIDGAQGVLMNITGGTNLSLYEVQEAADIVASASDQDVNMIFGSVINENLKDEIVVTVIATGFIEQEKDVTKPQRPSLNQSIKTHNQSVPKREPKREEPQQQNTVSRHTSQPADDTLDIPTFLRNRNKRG

Bacillus subtilis [3] = experiment: Ratio of totarol MIC to compound MIC for Bacillus subtilis 168; assay type: functional, subsp. subtilis str. 168
[4] = target: T2, Cell division protein FtsZ (Bacillus subtilis (strain 168), UniProt P17865); experiment: Inhibition of Bacillus subtilis FtsZ GTPase activity by enzyme-coupled assay
T2 sequence (P17865 whole entry): T1 sequence (whole entry)

[5] = target: T1, Cell division protein FtsZ (Bacillus subtilis (strain 168)); experiment: Inhibition of Bacillus subtilis FtsZ GTPase activity by enzyme-coupled assay in presence of 0.01% triton X-100

MIC (Bacillus subtilis [1]) [µM]	Structure (SMILES)	also measured
> 160	CC(C)c1c(O)ccc2c1CC[C@H]1C(C)(C)c3c(cnn3-c3ccccc3)C[C@]21C	
0.78 (≈ 0.311 µg/mL)	CC(C)c1c(O)ccc2c1CC[C@H]1C(C)(C)c3[nH]c4ccc(C#N)cc4c3C[C@]21C (racemic)	inhibition [2]: inactive
0.78 (≈ 0.345 µg/mL)	CC(C)c1c(O)ccc2c1CC[C@H]1C(C)(C)c3[nH]c4c(Cl)cc(Cl)cc4c3C[C@]21C (racemic)	
80 (≈ 31.3 µg/mL)	CC(C)c1c(O)ccc2c1CC[C@H]1C(C)(C)c3[nH]c4ccc(F)cc4c3C[C@]21C (racemic)	
6.3 (≈ 2.45 µg/mL)	CC(C)c1c(O)ccc2c1CC[C@H]1C(C)(C)c3[nH]c4c(O)cccc4c3C[C@]21C (racemic)	
20 (≈ 5.75 µg/mL)	CC(C)c1c(O)ccc2c1NC[C@H]1C(C)(C)CCC[C@]21C	
> 160	CC(C)c1c(O)ccc2c1CC[C@H]1C(C)(C)c3[nH]ncc3C[C@]21C	
> 160	COc1ccc2c(c1C(C)C)CC[C@H]1C(C)(C)C(=O)/C(=C\O)C[C@]21C	
> 160	CC(C)c1c(O)ccc2c1CC[C@H]1C(C)(C)NC(=O)CC[C@]21C	
40 (≈ 13 µg/mL)	CC(C)c1c(O)ccc2c1CC[C@H]1C(C)(C)c3oncc3C[C@]21C	
> 100	COc1ccc2c(c1C(C)C)CC[C@H]1C(C)(C)c3[nH]c4ccc(C#N)cc4c3C[C@]21C (racemic)	
5.5 (≈ 2.49 µg/mL)	CC(C)c1c(O)ccc2c1CC[C@H]1C(C)(C)c3[nH]c4ccc(S(N)(=O)=O)cc4c3C[C@]21C (racemic)	
> 160	CC(C)c1c(O)ccc2c1CC[C@H]1C(C)(C)C(N)CC[C@]21C (some centres not stated)	
2.5 (≈ 0.934 µg/mL)	CC(C)c1c(O)ccc2c1CC[C@H]1C(C)(C)c3[nH]c4ccccc4c3C[C@]21C	inhibition [2]: inactive; Ratio (Bacillus subtilis [3]): 4
1 (≈ 0.402 µg/mL)	CCc1cccc2c3c([nH]c12)C(C)(C)[C@@H]1CCc2c(ccc(O)c2C(C)C)[C@@]1(C)C3 (racemic)	
2.5 (≈ 1 µg/mL)	CCc1ccc2[nH]c3c(c2c1)C[C@]1(C)c2ccc(O)c(C(C)C)c2CC[C@H]1C3(C)C (racemic)	
2.5 (≈ 0.716 µg/mL)	CC(C)c1c(O)ccc2c1CC[C@H]1C(C)(C)CCC[C@]21C [TOTAROL]	IC50 [4]: 24 µM; inhibition [5]: inactive
11 (≈ 4.42 µg/mL)	Cc1ccc2c3c([nH]c2c1C)C(C)(C)[C@@H]1CCc2c(ccc(O)c2C(C)C)[C@@]1(C)C3 (racemic)	
> 160	CC(C)c1c(O)ccc2c1CC[C@H]1C(C)(C)/C(=N/O)CC[C@]21C	
0.78 (≈ 0.344 µg/mL)	CC(C)c1c(O)ccc2c1CC[C@H]1C(C)(C)c3[nH]c4ccc(C(F)(F)F)cc4c3C[C@]21C (racemic)	
> 256	CC(=O)N1C[C@H]2C(C)(C)CCC[C@]2(C)c2ccc(O)c(C(C)C)c21	

Structure (SMILES)	MIC (Bacillus subtilis [1]) [µM]	also measured
CN[C@H](CC(C)C)C(=O)N[C@H]1C(=O)N[C@@H](CC(N)=O)C(=O)N[C@H]2C(=O)N[C@H]3C(=O)N[C@H](C(=O)N[C@H](C(=O)O)c4cc(O)cc(O)c4-c4cc3ccc4O)[C@H](O)c3ccc(c(Cl)c3)Oc3cc2cc(c3O[C@@H]2O[C@H](CO)[C@@H](O)[C@H](O)[C@H]2O[C@H]2C[C@](C)(N)[C@H](O)[C@H](C)O2)Oc2ccc(cc2Cl)[C@H]1O [VANCOMYCIN]	0.63 (≈ 0.913 µg/mL)	

Reference: ChEMBL document CHEMBL2150925, “The Synthesis and Antimicrobial Activity of Heterocyclic Derivatives of Totarol” (ACS Med Chem Lett, 2012)
